Measured values taken from patent US10307353B2, “1-phenylmono- or -polyhydroxypropane compounds, compositions and cosmetic uses thereof” (L'OREAL, priority 2015, dated 2019).

System: AMPK (phospho-AMPK Thr-172)
Test: Level of expression of p-AMPK (Thr-172) in normal human epidermal keratinocytes, Western blotting
Type: cell-based
Conditions: for p-AMPK/AMPK ratio relative to the control (100%): 18 hours incubation; for p-AMPK/GAPDH ratio relative to the control (100%): 48 hours incubation
Protocol: Normal human epidermal keratinocytes are seeded at 180 000 cells per well and cultured in SFM culture medium (supplier Gibco) supplemented with 0.25 ng/ml EGF, 25 μg/ml of pituitary extract and 25 μg/ml gentamicin, up to confluence, and incubated in a humid oven at 37° C. and 5% CO2. The culture medium was then replaced with test medium (SFM (Gibco) supplemented with 25 μg/ml gentamicin) containing or not containing (control) the test compounds, or the references (AICAR—(5-amino-4-imidazole carboxamide riboside) at 500 μM). The cells were then incubated for 18 or 48 hours. The level of expression of p-AMPK was analyzed by Western blotting. At the end of the incubation, the proteins were extracted and quantified and then separated by electrophoresis on 10% polyacrylamide gel and then transferred onto a nitrocellulose membrane. […] Between each successive revelation, the antibodies were detached using a “stripping” buffer. The images were acquired with a Fuji LAS 3000 chemiluminescence scanner (Fujifilm) and the densitometric analyses were performed using the Multigauge software (Fujifilm). An increase in the phosphorylated form of AMPK (active form of the enzyme) relative to the control is evaluated in this test. Results Expressed in the form of the p-AMPK/GAPDH ratio relative to the control (100%): […]

NC(=O)c1ncn([C@@H]2O[C@H](CO)[C@@H](O)[C@H]2O)c1N [AICAR, 5-amino-4-imidazole carboxamide riboside, reference compound] was tested, and the “p-AMPK/AMPK ratio relative to the control (100%)” value (500 μM) was 177% ± 31% and the “p-AMPK/GAPDH ratio relative to the control (100%)” value (500 μM) was 279 ± 96%.

COc1cc(CC(C)O)ccc1O (stereo not drawn) [Compound 1] was tested, and the “p-AMPK/AMPK ratio relative to the control (100%)” value (500 μM) was 132% ± 11%.

For COc1cc(CC(O)CO)ccc1O (stereo not drawn) [Compound 5], the “p-AMPK/GAPDH ratio relative to the control (100%)” value (1 μM) was 116 ± 17%, the “p-AMPK/GAPDH ratio relative to the control (100%)” value (10 μM) was 149 ± 25% and the “p-AMPK/GAPDH ratio relative to the control (100%)” value (100 μM) was 136 ± 14%.
